Test results reported in patent US20100087516A1, “ANTIBACTERIAL MACROLACTIN A THAT BACILLUS POLYFERMENTICUS KJS-2 PRODUCED IN” (priority 2007, published 2010).
≈ marks a conversion by molar mass, not a printed value. Like-named read-outs stand apart in the source and are kept apart here.

Tests used:
[1] = tested on: 11 VRE strains, clinically isolated; assay: Minimal inhibitory concentration (MIC>90) in MH II medium; format: cell-based, vancomycin-resistant enterococci; settings: for MIC: Enterococcus, VRE
Protocol: (§1) The MIC (minimal inhibitory concentration) against VRE and MRSA was measured to test antibiotic activity of Macrolactin A produced by Bacillus polyfermenticus KJS-2, which is the strain of the present invention, against the two strains. The strains used for the experiment were 11 VRE strains and 13 MRSA strains, which were clinically isolated. Each strain used for the experiment was cultured in MH II medium at 200 rpm for 6 hours at 37° C., the absorbance of the medium measured at OD600nm using a UV detector, and then 1 ml aliquot of the medium was spread over MH II agar medium and incubated for 16 hours at 37° C. The number of colonies formed on the agar medium after 16 hours of incubation was counted. Each strain used for experiment was cultured in MH II medium at 200 rpm for 6 hours at 37° C., and the absorbance of the medium was measured at OD600nm using a UV detector. The number of cells were calculated based on the ratio of the number of colonies to the absorbance of the medium, and measured by the above process. Each culture medium was diluted to the final cell concentration of 0.25*10^7 cfu/ml and Macrolactin A was dissolved in the solvent DMSO, while ampicillin, teycoplanin, vancomycin and methillin were dissolved in water. To measure the MIC of Macrolactin A or of the four antibiotics, the mixture of the materials listed in Table 5 and Macrolactin A or the mixture of the materials listed in Table 6 and each of the four antibiotics, respectively in a 500 μl eppendorff tub, was incubated at 200 rpm for 16 hours at 37° C., and then absorbance was measured by a UV/Visible Light detector at 600 nm using a Fluorescence Multi-Detection Reader.

[2] = tested on: 13 MRSA strains, clinically isolated; assay: as above; format: cell-based, methicillin-resistant Staphylococcus aureus; settings: for MIC: Staphylococcus aureus, MRSA
Protocol: as §1

[3] = tested on: vancomycin-resistant enterococci (VRE); settings: cited from earlier work
[4] = tested on: methicillin-resistant Staphylococcus aureu (MRSA); settings: cited from earlier work
[5] = tested on: Burkholderia cepacia; settings: cited from earlier work
[6] = tested on: VRE5; assay: Bioassay at a gradient of concentration on TSB agar medium; format: cell-based, vancomycin-resistant enterococci; settings: solution 5 mg/ml in H2O

## CC1(C)S[C@@H]2[C@H](NC(=O)[C@H](N)c3ccccc3)C(=O)N2[C@H]1C(=O)O [Ampicillin]
[1]; Average of the 11 VRE strains, read-out: average MIC>90
  MIC: 273 µg/mL (≈ 781 µM)
[1]; VRE1, read-out: MIC>90
  MIC: 250 µg/mL (≈ 715 µM)
[1]; VRE2, read-out: MIC>90
  MIC: 250 µg/mL (≈ 715 µM)
[1]; VRE3, read-out: MIC>90
  MIC: 250 µg/mL (≈ 715 µM)
[1]; VRE4, read-out: MIC>90
  MIC: 250 µg/mL (≈ 715 µM)
[1]; VRE5, read-out: MIC>90
  MIC: 250 µg/mL (≈ 715 µM)
[1]; VRE6, read-out: MIC>90
  MIC: 250 µg/mL (≈ 715 µM)
[1]; VRE7, read-out: MIC>90
  MIC: 250 µg/mL (≈ 715 µM)
[1]; VRE9, read-out: MIC>90
  MIC: 250 µg/mL (≈ 715 µM)
[1]; VRE10, read-out: MIC>90
  MIC: 250 µg/mL (≈ 715 µM)
[1]; VRE914, read-out: MIC>90
  MIC: 250 µg/mL (≈ 715 µM)
[1]; VRE915, read-out: MIC>90
  MIC: 500 µg/mL (≈ 1430 µM)
[2]; Average of the 13 MRSA strains, read-out: average MIC>90
  MIC: 212 µg/mL (≈ 605 µM)
[2]; MRSA1, read-out: MIC>90
  MIC: 250 µg/mL (≈ 715 µM)
[2]; MRSA2, read-out: MIC>90
  MIC: 250 µg/mL (≈ 715 µM)
[2]; MRSA3, read-out: MIC>90
  MIC: 250 µg/mL (≈ 715 µM)
[2]; MRSA4, read-out: MIC>90
  MIC: 250 µg/mL (≈ 715 µM)
[2]; MRSA5, read-out: MIC>90
  MIC: 250 µg/mL (≈ 715 µM)
[2]; MRSA6, read-out: MIC>90
  MIC: 250 µg/mL (≈ 715 µM)
[2]; MRSA7, read-out: MIC>90
  MIC: 250 µg/mL (≈ 715 µM)
[2]; MRSA8*, read-out: MIC>90
  MIC: 125 µg/mL (≈ 358 µM)
[2]; MRSA8, read-out: MIC>90
  MIC: 125 µg/mL (≈ 358 µM)
[2]; MRSA9, read-out: MIC>90
  MIC: 125 µg/mL (≈ 358 µM)
[2]; MRSA10, read-out: MIC>90
  MIC: 250 µg/mL (≈ 715 µM)
[2]; MRSA11*, read-out: MIC>90
  MIC: 250 µg/mL (≈ 715 µM)
[2]; MRSA11, read-out: MIC>90
  MIC: 125 µg/mL (≈ 358 µM)

## Teicoplanin
[1]; Average of the 11 VRE strains
  average MIC>90: 125 µg/mL
[1]; VRE1
  MIC>90: 250 µg/mL
[1]; VRE2
  MIC>90: 250 µg/mL
[1]; VRE3
  MIC>90: 62.5 µg/mL
[1]; VRE4
  MIC>90: 125 µg/mL
[1]; VRE5
  MIC>90: 125 µg/mL
[1]; VRE6
  MIC>90: 125 µg/mL
[1]; VRE7
  MIC>90: 125 µg/mL
[1]; VRE9
  MIC>90: 62.5 µg/mL
[1]; VRE10
  MIC>90: 62.5 µg/mL
[1]; VRE914
  MIC>90: 62.5 µg/mL
[1]; VRE915
  MIC>90: 125 µg/mL
[2]; Average of the 13 MRSA strains
  average MIC>90: 104.6 µg/mL
[2]; MRSA1
  MIC>90: 250 µg/mL
[2]; MRSA2
  MIC>90: 125 µg/mL
[2]; MRSA3
  MIC>90: 125 µg/mL
[2]; MRSA4
  MIC>90: 125 µg/mL
[2]; MRSA5
  MIC>90: 125 µg/mL
[2]; MRSA6
  MIC>90: 125 µg/mL
[2]; MRSA7
  MIC>90: 250 µg/mL
[2]; MRSA8
  MIC>90: 62.5 µg/mL
[2]; MRSA8*
  MIC>90: 31.25 µg/mL
[2]; MRSA9
  MIC>90: 15.63 µg/mL
[2]; MRSA10
  MIC>90: 31.25 µg/mL
[2]; MRSA11
  MIC>90: 31.25 µg/mL
[2]; MRSA11*
  MIC>90: 62.5 µg/mL

## CC1CCC/C=C/C=C/C(O)CC(O)C/C=C\C=C\C(OC(=O)CC(=O)O)C/C=C/C=C\C(=O)O1 (stereo not shown) [Malonyl-macrolactin A (MMA), Malonyl-macrolactin A]
[3]
  antibiotic activity against VRE: excellent antibiotic activity
[4]
  antibiotic activity against MRSA: excellent antibiotic activity
[5]
  antibiotic activity against Burkholderia cepacia: excellent antibiotic activity

## CN[C@H](CC(C)C)C(=O)N[C@H]1C(=O)N[C@@H](CC(N)=O)C(=O)N[C@H]2C(=O)N[C@H]3C(=O)N[C@H](C(=O)N[C@H](C(=O)O)c4cc(O)cc(O)c4-c4cc3ccc4O)[C@H](O)c3ccc(c(Cl)c3)Oc3cc2cc(c3O[C@@H]2O[C@H](CO)[C@@H](O)[C@H](O)[C@H]2O[C@H]2C[C@](C)(N)[C@H](O)[C@H](C)O2)Oc2ccc(cc2Cl)[C@H]1O [Vancomycin]
[1]; read-out: MIC>90, VRE1
  MIC: 500 µg/mL (≈ 345 µM)
[1]; read-out: MIC>90, VRE2
  MIC: 500 µg/mL (≈ 345 µM)
[1]; read-out: MIC>90, VRE3
  MIC: 125 µg/mL (≈ 86.3 µM)
[1]; read-out: MIC>90, VRE4
  MIC: 250 µg/mL (≈ 173 µM)
[1]; read-out: MIC>90, VRE5
  MIC: 250 µg/mL (≈ 173 µM)
[1]; read-out: MIC>90, VRE6
  MIC: 250 µg/mL (≈ 173 µM)
[1]; read-out: MIC>90, VRE7
  MIC: 250 µg/mL (≈ 173 µM)
[1]; read-out: MIC>90, VRE9
  MIC: 250 µg/mL (≈ 173 µM)
[1]; read-out: MIC>90, VRE10
  MIC: 125 µg/mL (≈ 86.3 µM)
[1]; read-out: MIC>90, VRE914
  MIC: 125 µg/mL (≈ 86.3 µM)
[1]; read-out: MIC>90, VRE915
  MIC: 250 µg/mL (≈ 173 µM)
[1]; read-out: average MIC>90, Average of the 11 VRE strains
  MIC: 261 µg/mL (≈ 180 µM)
[2]; read-out: MIC>90, MRSA1
  MIC: 250 µg/mL (≈ 173 µM)
[2]; read-out: MIC>90, MRSA2
  MIC: 125 µg/mL (≈ 86.3 µM)
[2]; read-out: MIC>90, MRSA3
  MIC: 125 µg/mL (≈ 86.3 µM)
[2]; read-out: MIC>90, MRSA4
  MIC: 125 µg/mL (≈ 86.3 µM)
[2]; read-out: MIC>90, MRSA5
  MIC: 125 µg/mL (≈ 86.3 µM)
[2]; read-out: MIC>90, MRSA6
  MIC: 250 µg/mL (≈ 173 µM)
[2]; read-out: MIC>90, MRSA7
  MIC: 250 µg/mL (≈ 173 µM)
[2]; read-out: MIC>90, MRSA8
  MIC: 125 µg/mL (≈ 86.3 µM)
[2]; read-out: MIC>90, MRSA8*
  MIC: 125 µg/mL (≈ 86.3 µM)
[2]; read-out: MIC>90, MRSA9
  MIC: 250 µg/mL (≈ 173 µM)
[2]; read-out: MIC>90, MRSA10
  MIC: 250 µg/mL (≈ 173 µM)
[2]; read-out: MIC>90, MRSA11
  MIC: 250 µg/mL (≈ 173 µM)
[2]; read-out: MIC>90, MRSA11*
  MIC: 31.2 µg/mL (≈ 21.6 µM)
[2]; read-out: average MIC>90, Average of the 13 MRSA strains
  MIC: 175 µg/mL (≈ 121 µM)
[6]
  inhibition of VRE5 on TSB agar medium: not inhibited
